Patent publication US20220387375A1, “TRPV1 ACTIVATION-MODULATING COMPLEX MIXTURES OF CANNABINOIDS AND/OR TERPENES” (GBS Global Biopharma, Inc., priority 2018, published 2022)

Key:
[1] = molecular target: T1, TRPV1 (Rattus norvegicus, UniProt O35433); assay: Whole-cell patch clamp of TRPV1 currents in HEK293 cells overexpressing TRPV1 (HEK293-V1); format: cell-based; conditions: for ion selectivity / state of TRPV1 activation: 10 μM capsaicin; for effect of increasing internal calcium (0, 180, 620 nM) on falling phase or inactivation kinetics: 10 μM myrcene, then 1 μM capsaicin; for time course of induced TRPV1 current (sustained or inactivating): cannabinoid at 50, 5 μM myrcene or 1 μM capsaicin
T1 construct: FLAG; expressed in transfected cells
Protocol: HEK TRexTRPV1 were cultured in DMEM, 10% Fetal Bovine Serum, 2 mM Lglutamine, 10 μg/ml Blasticidin (Calbiochem, San Diego Calif.), 400 μg/ml Zeocin (InvivoGen, San Diego Calif.), where indicated transgene expression was induced using 1 μg/ml Tetracycline for 16-24 hrs. Unless otherwise indicated, basal expression of TRPV1 without induction was sufficient for these studies, and comparisons were made to untransfected HEK where needed. HEKTRex293 over-expressing human TRPV2, human TRPA1 and human TRPM8 were obtained from SB Drug Discovery (Glasgow, Scotland) and cultured as described above. The cannabinoids and terpenes were assayed in HEK cells that have been transfected with the TRPV1 ion channel protein. These cells are called HEK293-V1 cells.
This technique is used to study ionic currents from HEK293-V1. The voltage across the cell membrane is controlled and the ionic currents associated with changes in voltage are measured. A micropipette tip is pulled to a few micrometers in diameter followed by heating the tip to produce a smooth surface that assists in forming a high resistance seal with the cell membrane. To obtain this high resistance seal, the micropipette is pressed against a cell membrane and suction is applied. The membrane then fuses onto the glass surface creating a high resistance in the gigaohm range. This makes it possible to isolate electronically the ionic currents measured across the membrane patch or across the entire cell.
Patch-clamp experiments were performed in the whole-cell configuration at 21-25° C. Patch pipettes had resistances of 2-3 MΩ. Data was acquired with PatchMaster software (HEKA, Lambrecht, Germany), controlling an EPC-9 amplifier. Voltage ramps of 50 ms spanning the voltage range from −100 to 100 mV were delivered from a holding potential of 0 mV at a rate of 0.5 Hz over a period of 500 ms to 180 seconds (3 minutes). Voltages were corrected for a liquid junction potential of 10 mV. Currents were filtered at 2.9 kHz and digitized at 100 μs intervals. Capacitive currents were determined and corrected before each voltage ramp. The development of currents for a given potential was extracted from individual ramp current records by measuring the current amplitudes at voltages of −80 mV and +80 mV. Data were analyzed with FitMaster (HEKA, Lambrecht, Germany), and IgorPro (WaveMetrics, Lake Oswego, Oreg., USA). Where applicable, statistical errors of averaged data are given as mean±s.e.m with n determinations. The activated current amplitudes are analyzed by nA rather than pA/pF. […] Also the cell size selected for patching was in the 9 -12 pF range.
For patch-clamp recordings, HEK293 cells were kept in a standard sodium-based external Ringer's solution containing (mM): 140 NaCl, 1 CaCl2, 2 MgCl2, 2.8 KCl, 11 glucose, 10 HEPES-NaOH with a pH of 7.2 and osmolarity of 300 mOsmol. To assess the effects of external Calcium (Ca) on TRPV1 inactivation kinetics, Ca at different levels were tested including 0, 1, and 3 mM. In Experiments with zero external Ca, EGTA 10 mM was added and the Na concentration was lowered to 130 mM to maintain standard osmotic conditions at 300 mOsmol. For rapid external solution application and exchanges we used the SmartSquirt delivery system (Auto-Mate Scientific, San Francisco Calif., USA) that included four cryo tubes allowing for solution exchanges within one patch. This system included a ValveLink TTL interface between the electronic valves and the EPC10 amplifier (HEKA, Lambrecht, Germany). This electronic configuration allowed for programmable solution changes via the PatchMaster software (HEKA, Lambrecht, Germany).

[2] = molecular target: T1, TRPV1; assay: Bulk calcium assay (Fluo-4) in HEK-TRPV1 overexpressing cells; format: cell-based; conditions: for TRPV1-mediated calcium influx compared to vehicle: terpene 10 μM, vehicle subtracted (FIG. 14)
Protocol: Cells were washed and incubated with 0.2 micromolar Fluo-4 for 30 minutes at 37° C. in a standard modified Ringer's solution of the following composition (in mM): NaCl 145, KCl 2.8, CsCl 10, CaCl2 10, MgCl2 2, glucose 10, Hepes·NaOH 10, pH 7.4, 330 mOsm. Cells were transferred to 96-well plates at 50,000 cells/well and stimulated as indicated. Calcium signals were acquired using a Flexstation 3 (Molecular Devices, Sunnydale, USA). Data was analyzed using SoftMax® Pro 5 (Molecular Devices). Where indicated, nomically calcium-free external conditions were achieved by the preparation of 0 mM CaCl2 Ringer solution containing 1 mM EGTA.
The cell culture system described in U.S. patent application Ser. No. 15/986,316 was used to test the TRPV1-mediated calcium response to various terpenes. The HEK293 cell line was stably transfected with the pcDNA6TR (Invitrogen, CA) plasmid (encoding the tetracycline-sensitive TREx repressor protein), and was maintained in DMEM+10% fetal bovine serum (inactivated at 55° C. for 1 h)+2 mM glutamine in humidified 5% CO2 atmosphere at 37° C. Selection pressure on the TRex 293 cells was maintained by continuous culture in 10 μg/ml Blasticidin (Sigma, St Louis, Mo.).
For production of TRex HEK293 cells with inducible expression of TRPV1, parental cells were electroporated with the rat TRPV1 cDNA in the pcDNA4TO vector and clonal cell lines were selected by limiting dilution in the presence of 400 μg/ml zeocin (Invitrogen, CA). TRPV1 expression was induced using 1 μg/ml tetracycline for 16 h at 37° C. Stable lines were screened for inducible protein expression using anti-FLAG Western blot, and inducible expression was confirmed.
Calcium responses mediated by TRPV1 were tested by calcium assay in the cell culture system. Cells were washed and incubated with 0.2 μM fluo-4 acetoxymethyl ester (“Fluo-4”) for 30 minutes at 37° C. in a standard modified Ringer's solution of the following composition (in mM): NaCl 145, KCl2.8, CsCl10, CaCl2 10, MgCl2 2, glucose 10, Hepes·NaOH 10, pH 7.4, 330 mOsm. Cells were transferred to 96-well plates at 50,000 cells/well and stimulated as indicated. The terpenes used were alpha-bisabool, alpha-pinene, myrcene, camphene, linalool, ocimene, humulene, beta-caryophyllene, beta-pinene, limonene, and nerolidol. The terpenes were diluted in DMSO and added to the wells to a final concentration of 10 μM. Vehicle (DMSO) alone was run as a negative control and subtracted from the terpene traces. Calcium signals were acquired using a Flexstation 3 (Molecular Devices, Sunnydale, USA). Data was analyzed using SoftMax® Pro 5 (Molecular Devices).
Calcium responses mediated by TRPA1, TRPM8, TRPV2, and TRPV1 were tested by calcium assay in the cell culture system. Cells were washed and incubated with 0.2 μM fluo-4 acetoxymethyl ester (“Fluo-4”) for 30 minutes at 37° C. in a standard modified Ringer's solution of the following composition (in mM): NaCl 145, KCl 2.8, CsCl 10, CaCl2 10, MgCl2 2, glucose 10, Hepes·NaOH 10, pH 7.4, 330 mOsm. Cells were transferred to 96-well plates at 50,000 cells/well and stimulated with 10 μM myrcene diluted in DMSO. Vehicle (DMSO) was used as a negative control. Vehicle traces were subtracted from the myrcene traces for each cell line.
As shown in FIGS. 16A-H, a variety of cannabinoids were capable of initiating Ca^2+ fluxes in HEK-TRPV1 overexpressing cells, except for cannabigerol and cannabinol. Comparative responses to a single dose (10 μM concentration) of a variety of cannabinoids were made in the presence of 1 mM external Ca^2+, which are population-based, or bulk Ca^2+, measurements with each trace representing averaged triplicates of 100,000 cells per sample. […] For each of the cannabinoid compounds, dose responses at the population level were performed. […] The lower limit of detectable calcium responses in this system varied from 10-100 nM (CBDV, CBGA) to 1-10 μM.

T1 sequence (O35433 whole entry): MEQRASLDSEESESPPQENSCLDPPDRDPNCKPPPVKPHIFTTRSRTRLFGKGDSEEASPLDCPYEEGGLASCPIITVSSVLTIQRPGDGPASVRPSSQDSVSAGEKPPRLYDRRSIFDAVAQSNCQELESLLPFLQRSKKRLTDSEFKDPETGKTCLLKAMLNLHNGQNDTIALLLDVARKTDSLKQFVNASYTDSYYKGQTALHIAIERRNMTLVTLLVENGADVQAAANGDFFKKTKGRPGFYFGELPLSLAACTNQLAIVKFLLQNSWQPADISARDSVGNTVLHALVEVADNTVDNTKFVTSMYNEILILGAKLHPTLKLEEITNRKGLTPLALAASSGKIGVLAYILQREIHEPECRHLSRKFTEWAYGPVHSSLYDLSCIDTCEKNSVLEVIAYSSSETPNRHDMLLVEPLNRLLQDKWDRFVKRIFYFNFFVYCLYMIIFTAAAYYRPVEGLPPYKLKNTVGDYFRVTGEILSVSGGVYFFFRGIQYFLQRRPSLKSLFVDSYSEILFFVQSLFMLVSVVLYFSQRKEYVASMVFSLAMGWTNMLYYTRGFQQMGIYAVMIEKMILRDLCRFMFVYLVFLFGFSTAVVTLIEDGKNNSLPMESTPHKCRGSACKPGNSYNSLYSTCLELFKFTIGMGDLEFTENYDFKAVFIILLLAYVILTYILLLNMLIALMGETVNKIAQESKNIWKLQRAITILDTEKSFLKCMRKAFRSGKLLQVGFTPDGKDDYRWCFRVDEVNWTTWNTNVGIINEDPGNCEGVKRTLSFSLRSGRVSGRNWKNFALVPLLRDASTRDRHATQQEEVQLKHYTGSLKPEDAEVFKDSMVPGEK

SMILES: Oc1cc2c(cc1O)CN(C(=S)NCCc1ccc(Cl)cc1)CCC2 [Capsazepine, reference compound]
- effect on capsaicin-induced TRPV1 current ([1]; CPZ 10 μM for 30 seconds after 50 nM Capsaicin for 60 seconds): reduced both the inward and outward currents
- effect on capsaicin-activated TRPV1 channel (state 1 and state 2) ([1]; CPZ added after 10 μM capsaicin): rapid TRPV1 channel deactivation
- effect on CBD-induced TRPV1 current ([1]; CPZ application 30 seconds after CBD 30 μM): reduced

SMILES: CC(C)=CCC[C@](C)(O)[C@@H]1CC=C(C)CC1 [alpha-bisabool]
- TRPV1-mediated calcium influx compared to vehicle [2]: little to no calcium influx

SMILES: CC1=CCC2CC1C2(C)C (stereo not drawn) [alpha-pinene]
- TRPV1-mediated calcium influx compared to vehicle [2]: little to no calcium influx

SMILES: C=C1CC/C=C(\C)CC[C@@H]2[C@@H]1CC2(C)C [beta-caryophyllene]
- TRPV1-mediated calcium influx compared to vehicle [2]: little to no calcium influx

SMILES: C=C1CCC2CC1C2(C)C (stereo not drawn) [beta-pinene]
- TRPV1-mediated calcium influx compared to vehicle [2]: little to no calcium influx

SMILES: C=C1C2CCC(C2)C1(C)C (stereo not drawn) [camphene]
- TRPV1-mediated calcium influx compared to vehicle [2]: little to no calcium influx

SMILES: COc1cc(CNC(=O)CCCC/C=C/C(C)C)ccc1O [capsaicin, Capsaicin, reference compound]
- current induced ([1]; 1 μM capsaicin (not shown), comparison to myrcene): 4-10 nA
- ion selectivity / state of TRPV1 activation ([1]; absence of internal BAPTA and Ca2+): Ca^2 ion selective TRPV1 activation
- ion selectivity / state of TRPV1 activation ([1]; presence of internal 10 mM BAPTA and 150 nM Ca2+): Na^+ ion selective TRPV1 activation
- effect of increasing internal calcium (0, 180, 620 nM) on falling phase or inactivation kinetics [1]: stronger effect
- type of TRPV1 current recorded ([1]; Capsaicin 50 nM for 60 seconds, Ca 0 internally and externally): outwardly rectifying TRPV1 current
- rectification of current (resulted in rectifying currents or not) ([1]; Capsaicin 500 nM): did not
- rectification of current ([1]; Capsaicin low (30 nM) and medium (100 nM) doses): rectifying currents
- IV relationship / TRPV1 channel state ([1]; after 1 μM capsaicin): linear due to TRPV1 transitioning to the dilated state (state 2)
- time course of induced TRPV1 current (sustained or inactivating) [1]: sustained

SMILES: C/C1=C\CC/C(C)=C/CC(C)(C)/C=C/C1 [humulene]
- TRPV1-mediated calcium influx compared to vehicle [2]: little to no calcium influx

SMILES: C=C(C)[C@H]1CC=C(C)CC1 [limonene]
- TRPV1-mediated calcium influx compared to vehicle [2]: little to no calcium influx

SMILES: C=CC(C)(O)CCC=C(C)C (stereo not drawn) [linalool]
- TRPV1-mediated calcium influx compared to vehicle [2]: little to no calcium influx

SMILES: C=CC(=C)CCC=C(C)C [myrcene, 7-methyl-3-methylideneocta-1,6-diene]
- inward current induced ([1]; 5 μM myrcene, average of 6 independent experiments): approximately 0.5 nA
- effect of increasing internal calcium (0, 180, 620 nM) on falling phase or inactivation kinetics [1]: minor effect
- IV relationship / TRPV1 channel state ([1]; 50 μM myrcene (FIG. 10C)): state 1
- IV relationship / TRPV1 channel state ([1]; 150 μM myrcene (FIG. 11)): state 1
- time course of induced TRPV1 current (sustained or inactivating) [1]: rapidly inactivating
- current induced ([1]; myrcene 5 μM, 10 μM and 150 μM (FIGS. 8A-8C)): 0.5-2.2 nA
- activation of cells overexpressing TRPV1 (calcium entry) ([2]; 10 μM myrcene): activated
- TRPV1-mediated calcium influx compared to vehicle [2]: greatest amount of calcium influx

SMILES: C=CC(C)(O)CCC=C(C)CCC=C(C)C (stereo not drawn) [nerolidol]
- TRPV1-mediated calcium influx compared to vehicle [2]: brief initial calcium influx

SMILES: C=CC(C)=CCC=C(C)C [ocimene]
- TRPV1-mediated calcium influx compared to vehicle [2]: little to no calcium influx
